Twelve compounds from US9434711B2 (Janssen Pharmaceutica, NV, priority 2007, dated 2016) can be followed below.

Read-outs that look alike come from different tables or passages of the source.

The target in the experiment is canine TRPM8 (Canis lupus familiaris, UniProt Q1A7N1). Briefly: In Vitro Canine TRPM8 Functional Assay (Ca2+ fluorescence, icilin activation). To be noted: for IC50: HEK293 cells stably expressing canine TRPM8, icilin activation, eight-point dose-response, read-out: IC50; for inhibition at 0.5 µM: compound at 0.5 μM, read-out: % Inh @ 0.5; for inhibition at 0.2 µM: read-out: % Inh @ 0.2. In kind it is cell-based. In short, it runs like this: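 HEK293 cells stably expressing canine TRPM8 loaded with Calcium 3 dye; compound added and Ca2+ fluorescence monitored 5 min before icilin at a final level giving ~80% maximal response, read on FLIPR or FDSS. EC50 or IC50 from eight-point dose-response, quadruplicate wells per point.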
Sequence of canine TRPM8 (Q1A7N1 1-1104): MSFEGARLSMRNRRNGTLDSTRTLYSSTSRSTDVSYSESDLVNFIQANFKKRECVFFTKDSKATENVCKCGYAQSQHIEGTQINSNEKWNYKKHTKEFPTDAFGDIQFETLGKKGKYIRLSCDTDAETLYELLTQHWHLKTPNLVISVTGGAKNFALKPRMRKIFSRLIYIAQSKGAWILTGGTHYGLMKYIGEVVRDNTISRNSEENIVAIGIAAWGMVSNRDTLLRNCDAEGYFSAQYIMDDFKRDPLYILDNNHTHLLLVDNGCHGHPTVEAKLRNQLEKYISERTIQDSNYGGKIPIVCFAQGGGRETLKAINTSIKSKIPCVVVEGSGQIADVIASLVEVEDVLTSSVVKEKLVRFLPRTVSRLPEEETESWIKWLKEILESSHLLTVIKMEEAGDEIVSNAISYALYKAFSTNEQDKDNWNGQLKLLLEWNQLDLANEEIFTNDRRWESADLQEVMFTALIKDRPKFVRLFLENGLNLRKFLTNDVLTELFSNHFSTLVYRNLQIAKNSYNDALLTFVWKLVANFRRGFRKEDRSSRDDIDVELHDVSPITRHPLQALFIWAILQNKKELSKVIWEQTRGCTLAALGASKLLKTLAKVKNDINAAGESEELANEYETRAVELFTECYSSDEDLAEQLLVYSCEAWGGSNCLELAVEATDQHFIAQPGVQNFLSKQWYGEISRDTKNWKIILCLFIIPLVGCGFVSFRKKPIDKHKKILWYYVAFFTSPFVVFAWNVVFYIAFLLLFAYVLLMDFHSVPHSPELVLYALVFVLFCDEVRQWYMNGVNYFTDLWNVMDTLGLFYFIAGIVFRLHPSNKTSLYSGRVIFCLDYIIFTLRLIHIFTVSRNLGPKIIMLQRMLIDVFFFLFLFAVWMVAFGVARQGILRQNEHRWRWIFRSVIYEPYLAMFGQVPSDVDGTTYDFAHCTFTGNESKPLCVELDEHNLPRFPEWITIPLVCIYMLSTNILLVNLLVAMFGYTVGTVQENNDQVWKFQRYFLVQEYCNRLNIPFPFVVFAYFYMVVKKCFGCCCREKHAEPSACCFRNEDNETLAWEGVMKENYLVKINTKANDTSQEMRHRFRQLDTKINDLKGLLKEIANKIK

Where [1] appears, read: canine TRPM8, icilin activation.
[2] abbreviates: compound at 0.2 μM, canine TRPM8, icilin activation.

Usually IC50 stands for the concentration that inhibits the measured activity by half.

For the compound `Cc1c(N(Cc2cccc3cccnc23)S(=O)(=O)c2ccc3ncccc3c2)sc2ccccc12` [Compound 32, N-(3-Methyl-benzo[b]thiophen-2-yl)-N-(quinolin-8-ylmethyl)-quinoline-6-sulfonamide], the IC50 stood at 37 nM. Under setting [1], the inhibition at 0.5 µM was 100%. As for `Cc1c(N(Cc2ccc(OC(F)(F)F)cc2)S(=O)(=O)c2ccc(-c3noc(=O)[nH]3)nc2)sc2ccccc12` [Compound 808], the inhibition at 0.2 µM (0.2 μM compound, HEK293 cells stably expressing canine TRPM8, icilin activation) amounted to 102%. As for `CS(=O)(=O)Nc1ccc(S(=O)(=O)N(CCCCC(F)(F)F)c2sc3ccccc3c2Br)cc1` [Compound 680, N-(3-Bromo-benzo[b]thiophen-2-yl)-4-methanesulfonylamino-N-(5,5,5-trifluoro-pentyl)-benzenesulfonamide], the IC50 was found to be 56.1 nM. Moreover, under setting [2], the inhibition at 0.2 µM turned out to be 96.2%. The matching figures for `Cc1c(N(CCCCC(F)(F)F)S(=O)(=O)CCC(=O)O)sc2ccccc12` [Compound 606, N-(3-Methyl-benzo[b]thiophen-2-yl)-N-(5,5,5-trifluoro-pentyl)-2-carboxy-ethanesulfonamide]: 90.5 nM and 75%.

Regarding `Cc1c(N(CCCC(F)(F)F)S(=O)(=O)CC(F)(F)F)sc2ccccc12` [Compound 672, N-(3-Methyl-benzo[b]thiophen-2-yl)-N-(4,4,4-trifluoro-butyl)-2,2,2-trifluoro-ethanesulfonamide], the IC50 is 74.9 nM. Further, the inhibition at 0.2 µM under setting [2] was found to be 75.3%. With `O=S(=O)(c1ccccc1)N(Cc1ccc(F)c(C(F)(F)F)c1)c1sc2ccccc2c1CO` [Compound 214, N-(4-Fluoro-3-trifluoromethyl-benzyl)-N-(3-hydroxymethyl-benzo[b]thiophen-2-yl)-benzenesulfonamide], the IC50 is 2.1 nM. Further, the inhibition at 0.2 µM under setting [2] amounted to 97%. The matching figures for `CC(=O)c1ccc(S(=O)(=O)N(Cc2ccc(F)c(C(F)(F)F)c2)c2sc3ccccc3c2C)cc1` [Compound 352, N-(3-Methyl-benzo[b]thiophen-2-yl)-N-(4-fluoro-3-trifluoromethyl-benzyl)-4-acetyl-benzenesulfonamide]: 8.6 nM and 96%. For `O=S(=O)(c1cccc(O)c1)N(Cc1ccc(F)c(C(F)(F)F)c1)c1sc2ccccc2c1Br` [Compound 291, N-(3-Bromo-benzo[b]thiophen-2-yl)-N-(4-fluoro-3-trifluoromethyl-benzyl)-3-hydroxy-benzenesulfonamide], in that order: 5.8 nM and 101%.

In the case of `CC(C)(O)c1c(N(Cc2ccc(OC(F)(F)F)cc2)S(=O)(=O)c2ccc(C(=O)[O-])cc2)sc2ccccc12.[Na+]` [Compound 781, Sodium, N-(3-(1-Hydroxy-1-methyl-ethyl)-benzo[b]thiophen-2-yl)-N-(4-trifluoromethoxy)benzyl-4-carboxy-benzenesulfonamide], the IC50 stood at 3 nM. Moreover, the “% Inh @ 0.2 (μM)” value under setting [2] was determined as 102%. `Cc1c(N(CCC2CC2)S(=O)(=O)c2ccc(N3CCSCC3)cc2)sc2ccccc12` [Compound 740, N-(3-Methyl-benzo[b]thiophen-2-yl)-N-(cyclopropyl-ethyl)-4-thiomorpholin-4-yl-benzenesulfonamide]: under setting [2], the inhibition at 0.2 µM came to 57%. With `Cc1nc(O)nc(O)c1S(=O)(=O)N(Cc1ccc(F)c(C(F)(F)F)c1)c1sc2ccccc2c1C` [Compound 72, N-(3-Methyl-benzo[b]thiophen-2-yl)-N-(4-fluoro-3-trifluoromethylbenzyl)-(2,4-dihydroxy-6-methyl-pyrimidine-5-yl)sulfonamide], the IC50 came to 26 nM. For the same compound, the inhibition at 0.2 µM under setting [2] was 99%. Regarding `O=S(=O)(c1ccccc1)N(Cc1ccccc1)c1cc2ccccc2s1` [Compound 59, N-(Benzo[b]thiophen-2-yl)-N-(benzyl)-benzenesulfonamide], the IC50 was 44.5 nM. The inhibition at 0.5 µM under setting [1] is 98%.
